The results in this text go back to US7989459B2, “Purinones and 1H-imidazopyridinones as PKC-theta inhibitors” (Pharmacopeia, LLC, priority 2006, dated 2011).

Where only a bound is given, the exact number is not on record here.

In general, Ki refers to the equilibrium dissociation constant of an inhibitor or competing ligand from its target. By IC50 is commonly meant the concentration that inhibits the measured activity by half. Lower therefore signals inhibition by little substance.

Holding throughout (type): biochemical
Test [1] addresses T1, SGK1 (Homo sapiens, UniProt O00141).
T1 sequence (O00141 1-431): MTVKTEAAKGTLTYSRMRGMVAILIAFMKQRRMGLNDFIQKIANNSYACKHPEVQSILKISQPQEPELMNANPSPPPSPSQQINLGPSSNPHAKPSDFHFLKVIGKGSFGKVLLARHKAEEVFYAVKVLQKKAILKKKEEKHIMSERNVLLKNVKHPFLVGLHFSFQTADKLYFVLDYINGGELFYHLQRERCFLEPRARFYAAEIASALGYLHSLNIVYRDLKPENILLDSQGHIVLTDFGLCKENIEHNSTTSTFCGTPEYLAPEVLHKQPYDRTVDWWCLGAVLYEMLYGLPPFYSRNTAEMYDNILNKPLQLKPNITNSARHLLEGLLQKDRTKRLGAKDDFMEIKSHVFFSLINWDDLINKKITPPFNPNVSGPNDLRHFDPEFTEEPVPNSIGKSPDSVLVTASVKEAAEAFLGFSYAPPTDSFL
The experiment in a line: IC50 for kinase SGK (selectivity). The method, then:
Entries identified with “1” had values above 15 nM; entries identified with “2” had values above 100 nM; entries identified with “3” had values above 1 μM; entries identified with “4” had values above 10 μM. In Table 2, “nd” stands for “not determined.”

The target in test [2] is PKCθ (Homo sapiens, UniProt Q04759). The experiment in a line: Ki Pan Vera (PV) PKCθ. The method, then:
(§1) For Ki Pan Vera (PV) of PKCθ, entries identified with “A” had values below 100 nM; entries identified with “B” had values below 1 μM.

The target in test [3] is PKC delta (Homo sapiens, UniProt Q05655). The experiment in a line: Ki Pan Vera (PV) PKC delta.
Chain of PKC delta (Q05655 whole entry): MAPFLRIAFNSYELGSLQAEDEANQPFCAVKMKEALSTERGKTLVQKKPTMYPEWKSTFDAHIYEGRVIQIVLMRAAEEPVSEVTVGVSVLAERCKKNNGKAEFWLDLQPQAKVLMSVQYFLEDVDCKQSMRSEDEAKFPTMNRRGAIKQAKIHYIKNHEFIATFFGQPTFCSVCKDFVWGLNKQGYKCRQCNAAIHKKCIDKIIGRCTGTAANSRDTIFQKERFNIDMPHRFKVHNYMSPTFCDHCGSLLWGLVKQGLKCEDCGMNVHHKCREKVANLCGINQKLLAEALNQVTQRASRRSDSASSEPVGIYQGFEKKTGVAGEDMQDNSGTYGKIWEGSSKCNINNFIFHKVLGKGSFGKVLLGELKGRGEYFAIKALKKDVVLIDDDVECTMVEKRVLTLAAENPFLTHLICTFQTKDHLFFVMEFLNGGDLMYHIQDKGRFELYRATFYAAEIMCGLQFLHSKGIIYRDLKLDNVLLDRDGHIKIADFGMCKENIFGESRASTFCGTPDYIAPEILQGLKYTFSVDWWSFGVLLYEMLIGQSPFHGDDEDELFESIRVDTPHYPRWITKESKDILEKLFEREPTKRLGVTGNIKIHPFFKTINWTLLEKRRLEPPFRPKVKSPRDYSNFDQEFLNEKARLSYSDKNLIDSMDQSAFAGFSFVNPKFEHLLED
The target in test [4] is PKC alpha (Homo sapiens, UniProt P17252). Nature of the test: Ki Pan Vera (PV) PKC alpha. How it is done:
[Worded in the source for another target; this target is reported under the same test.] as §1

Chain of PKCθ (Q04759 whole entry): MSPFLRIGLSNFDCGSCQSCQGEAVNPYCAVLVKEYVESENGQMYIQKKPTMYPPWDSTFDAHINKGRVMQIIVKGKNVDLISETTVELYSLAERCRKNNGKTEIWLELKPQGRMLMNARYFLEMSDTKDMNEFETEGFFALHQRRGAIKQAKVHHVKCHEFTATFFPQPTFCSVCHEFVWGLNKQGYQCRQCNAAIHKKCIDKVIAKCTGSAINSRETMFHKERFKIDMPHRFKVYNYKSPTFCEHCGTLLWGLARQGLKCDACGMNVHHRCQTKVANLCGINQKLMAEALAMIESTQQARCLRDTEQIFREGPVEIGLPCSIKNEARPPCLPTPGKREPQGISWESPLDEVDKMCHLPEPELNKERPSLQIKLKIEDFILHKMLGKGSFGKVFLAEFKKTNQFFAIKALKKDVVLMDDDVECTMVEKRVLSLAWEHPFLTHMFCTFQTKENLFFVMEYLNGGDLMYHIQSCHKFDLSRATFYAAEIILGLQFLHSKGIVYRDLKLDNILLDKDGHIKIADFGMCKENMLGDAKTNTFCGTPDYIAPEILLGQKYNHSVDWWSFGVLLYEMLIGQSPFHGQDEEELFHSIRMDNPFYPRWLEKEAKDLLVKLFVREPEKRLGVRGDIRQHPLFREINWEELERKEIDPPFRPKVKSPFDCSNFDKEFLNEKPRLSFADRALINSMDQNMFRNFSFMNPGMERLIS

Regarding `NCCCNc1ccc2[nH]c(=O)n(Cc3c(Cl)cccc3Cl)c2n1` [Compound 149], the “IC50-SGK1 (nM)” value in test [1] is recorded as “Inactive”. In addition, the inhibitory constant (Ki) in test [2] was below 100 nM; in test [3], above 100 nM; in test [4] it was above 10 µM.
As for `O=c1[nH]c2cnc(NC[C@@H]3CCNC3)nc2n1Cc1ccccc1Cl` [Compound 128], the IC50 in test [1] is above 10 µM. Besides, the Ki was below 1000 nM in test [2], above 100 nM in test [3] and above 10 µM in test [4].
On to `O=c1[nH]c2cnc(NCC3CCNC3)nc2n1Cc1ccccc1F` (stereo not drawn) [Compound 204], for which the 50% inhibitory concentration (IC50) in test [1] was above 10 µM. Moreover, the inhibition constant Ki in test [2] is below 1000 nM; in test [3], above 100 nM; in test [4], above 10 µM.
With `O=c1[nH]c2cnc(NCC3CCNCC3)nc2n1-c1cccc(Cl)c1` [Compound 224], the values for the Ki in test [2], in test [3] and in test [4] were below 1000 nM, above 1000 nM and above 1 µM, respectively.
Turning to `O=c1[nH]c2cnc(NCC3CCNCC3)nc2n1Cc1c(Cl)cccc1Cl` [Compound 205], in test [1], the “IC50-SGK1 (nM)” value is “Inactive”. Further, the inhibition constant (Ki) in test [2] is below 1000 nM; in test [3], above 100 nM; in test [4] it was above 10 µM.
Consider `O=c1[nH]c2cnc(NCC3CCNC3)nc2n1Cc1c(F)cccc1Cl` (stereo not drawn) [Compound 106], for which, in test [1], the IC50 was above 10 µM. Moreover, the values for the inhibition constant Ki in test [2], in test [3] and in test [4] were below 100 nM, above 15 nM and above 1 µM, respectively.
The matching figures for `O=c1[nH]c2cnc(NCC3CCNC3)nc2n1Cc1cc(F)ccc1C(F)(F)F` (stereo not drawn) [Compound 105]: above 1 µM, below 100 nM, above 15 nM and above 1 µM.
Take `NCCCNc1ncc2[nH]c(=O)n(Cc3c(F)cccc3Cl)c2n1` [Compound 118]: in test [1], the “IC50-SGK1 (nM)” value was “Inactive”. The Ki in test [2] is below 100 nM; in test [3] it was above 100 nM; in test [4], above 10 µM.
Regarding `O=c1[nH]c2ccc(NC[C@H]3CCNC3)nc2n1Cc1c(Cl)cccc1Cl` [Compound 148], the inhibition constant Ki in test [2] is below 100 nM; in test [3], above 100 nM; in test [4] it was above 10 µM.
`O=c1[nH]c2cnc(NCC3CCNC3)nc2n1Cc1ccccc1Br` (stereo not drawn) [Compound 104] came in with an IC50 in test [1] above 10 µM. Also, the Ki in test [2] is below 100 nM; in test [3], above 15 nM; in test [4] it was above 1 µM.
The matching figures for `NCCCNc1ncc2[nH]c(=O)n(Cc3ccccc3Br)c2n1` [Compound 127]: above 1 µM, below 100 nM, above 100 nM and above 10 µM.
With `O=c1[nH]c2cnc(NCC3CCNC3)nc2n1Cc1cccc(Cl)c1Cl` (stereo not drawn) [Compound 114], the IC50 in test [1] is above 10 µM. Moreover, the inhibition constant (Ki) is below 100 nM in test [2], above 100 nM in test [3] and above 10 µM in test [4].
As for `NCCCNc1ncc2[nH]c(=O)n(Cc3ccccc3OC(F)(F)F)c2n1` [Compound 139], in test [1], the “IC50-SGK1 (nM)” value was “Inactive”. The inhibitory constant (Ki) in test [2] was below 1000 nM; in test [3], above 1000 nM; in test [4], above 10 µM.
In test [1], `O=c1[nH]c2cnc(NCC3CCNC3)nc2n1Cc1ccccc1Cl` (stereo not drawn) [Compound 113] gave an IC50 above 10 µM. In addition, the Ki in test [2] was below 100 nM; in test [3], above 15 nM; in test [4], above 1 µM.
With `O=c1[nH]c2cnc(NCCCn3ccnc3)nc2n1Cc1c(Cl)cccc1C(F)(F)F` [Compound 207], the figures for the Ki in test [2], in test [3] and in test [4] were below 1000 nM, above 100 nM and above 10 µM, respectively.
Take `O=c1[nH]c2cnc(NC[C@H]3CCCNC3)nc2n1Cc1c(Cl)cccc1Cl` [Compound 140]: the concentration for half-maximal inhibition (IC50) in test [1] was above 10 µM. Also, the Ki in test [2] was below 1000 nM; in test [3], above 100 nM; in test [4], above 10 µM.
As for `O=c1[nH]c2cnc(NCC3CCNCC3)nc2n1Cc1ccccc1Cl` [Compound 206], in test [1], the “IC50-SGK1 (nM)” value is “Inactive”. Moreover, the inhibition constant (Ki) in test [2] is below 1000 nM; in test [3] it was above 100 nM; in test [4], above 10 µM.
Taken in the same sequence, the figures for `O=c1[nH]c2cnc(NCC3CCNC3)nc2n1Cc1c(F)cccc1F` (stereo not drawn) [Compound 119] were “Inactive”, below 100 nM, above 100 nM and above 10 µM.
Turning to `O=c1[nH]c2cnc(NC[C@H]3CCCNC3)nc2n1Cc1ccccc1C(F)(F)F` [Compound 142], the 50% inhibitory concentration (IC50) in test [1] is above 10 µM. For the same molecule, the values for the Ki in test [2], in test [3] and in test [4] were below 1000 nM, above 100 nM and above 10 µM, respectively.
As to `O=c1[nH]c2cnc(NC[C@@H]3CCCNC3)nc2n1Cc1c(Cl)cccc1Cl` [Compound 138], the concentration for half-maximal inhibition (IC50) in test [1] is above 10 µM. In addition, the inhibition constant Ki was below 100 nM in test [2], above 100 nM in test [3] and above 10 µM in test [4].
As to `NCCCNc1ncc2[nH]c(=O)n(Cc3ccccc3F)c2n1` [Compound 208], the “IC50-SGK1 (nM)” value in test [1] is listed as “Inactive”. The Ki in test [2] is below 1000 nM; in test [3], above 100 nM; in test [4], above 10 µM.
Taken in the same sequence, the figures for `O=c1[nH]c2cnc(NC[C@H]3CCCNC3)nc2n1Cc1ccccc1Br` [Compound 141] were “Inactive”, below 1000 nM, above 100 nM and above 10 µM.
On to `O=c1[nH]c2cnc(NCC3CCNCC3)nc2n1Cc1cccc(Cl)c1` [Compound 215], for which the Ki was below 1000 nM in test [2], above 1000 nM in test [3] and above 10 µM in test [4].
Consider `O=c1[nH]c2cnc(NC[C@H]3CCNC3)nc2n1Cc1ccccc1C(F)(F)F` [Compound 122], for which the “IC50-SGK1 (nM)” value in test [1] was “Inactive”. The Ki was below 100 nM in test [2], above 100 nM in test [3] and above 1 µM in test [4].
`COc1ccccc1Cn1c(=O)[nH]c2cnc(NCCCN)nc21` [Compound 218]: the results for the Ki in test [2], in test [3] and in test [4] were below 1000 nM, above 1000 nM and above 10 µM, respectively.
`O=c1[nH]c2cnc(NC[C@@H]3CCCNC3)nc2n1Cc1ccccc1C(F)(F)F` [Compound 144] had a concentration for half-maximal inhibition (IC50) in test [1] above 10 µM. The figures for the Ki in test [2], in test [3] and in test [4] were below 1000 nM, above 100 nM and above 10 µM, respectively.
For the molecule `O=c1[nH]c2cnc(NCC3CCNCC3)nc2n1Cc1ccccc1Br` [Compound 201], in test [1], the IC50 is above 10 µM. For the same molecule, the inhibition constant Ki is below 1000 nM in test [2], above 100 nM in test [3] and above 1 µM in test [4].
Turning to `O=c1[nH]c2cnc(NCC3CCNC3)nc2n1Cc1ccccc1OC(F)(F)F` (stereo not drawn) [Compound 112], the “IC50-SGK1 (nM)” value in test [1] is “Inactive”. The Ki is below 100 nM in test [2], above 100 nM in test [3] and above 1 µM in test [4].
Regarding `O=c1[nH]c2cnc(NCC3CCNC3)nc2n1Cc1c(Cl)cccc1Cl` (stereo not drawn) [Compound 108], the IC50 in test [1] was above 10 µM. Moreover, the results for the Ki in test [2], in test [3] and in test [4] were below 100 nM, above 15 nM and above 1 µM, respectively.
As to `NCCCNc1ncc2[nH]c(=O)n(Cc3ccccc3C(F)(F)F)c2n1` [Compound 136], the “IC50-SGK1 (nM)” value in test [1] is recorded as “Inactive”. Besides, the results for the Ki in test [2], in test [3] and in test [4] were below 100 nM, above 100 nM and above 10 µM, respectively.
`O=c1[nH]c2cnc(NC[C@@H]3CCNC3)nc2n1Cc1ccccc1C(F)(F)F` [Compound 116] had an IC50 in test [1] above 10 µM. For the same molecule, the inhibition constant (Ki) in test [2] was below 100 nM; in test [3] it was above 100 nM; in test [4], above 1 µM.
Taken in the same sequence, the figures for `NCCCNc1ncc2[nH]c(=O)n(Cc3cc(F)ccc3C(F)(F)F)c2n1` [Compound 133] were above 1 µM, below 100 nM, above 100 nM and above 10 µM.
The matching figures for `O=c1[nH]c2cnc(NC[C@H]3CCNC3)nc2n1Cc1ccccc1Cl` [Compound 103]: above 1 µM, below 100 nM, above 15 nM and above 1 µM.
As for `NCCCNc1ncc2[nH]c(=O)n(Cc3cccc(Cl)c3Cl)c2n1` [Compound 117], in test [1], the “IC50-SGK1 (nM)” value is reported as “Inactive”. The values for the Ki in test [2], in test [3] and in test [4] were below 100 nM, above 100 nM and above 10 µM, respectively.
Take `NCCCNc1ccc2[nH]c(=O)n(Cc3ccccc3Cl)c2n1` [Compound 241]: in test [1], the “IC50-SGK1 (nM)” value is “Inactive”. The Ki in test [2] was below 1000 nM; in test [3] it was above 100 nM; in test [4], above 10 µM.
As for `O=c1[nH]c2cnc(NCC3CCNC3)nc2n1Cc1ccccc1C(F)(F)F` (stereo not drawn) [Compound 109], the values for the Ki in test [2], in test [3] and in test [4] were below 100 nM, above 15 nM and above 1 µM, respectively.
Taken in the same sequence, the figures for `O=c1[nH]c2cnc(NCC3CCNC3)nc2n1[C@@H]1CCc2ccccc21` (stereo partly drawn) [Compound 231] were below 1000 nM, above 1000 nM and above 10 µM.
Take `NCCCNc1ncc2[nH]c(=O)n(Cc3cccc(Cl)c3)c2n1` [Compound 214]: the Ki in test [2] was below 1000 nM; in test [3], above 1000 nM; in test [4], above 10 µM.
`Cc1ccccc1Cn1c(=O)[nH]c2cnc(NCCCN)nc21` [Compound 216]: the Ki in test [2] is below 1000 nM; in test [3] it was above 1000 nM; in test [4] it was above 10 µM.
